“And” between values parts separate entries of the source, which are not always exact repeats. Identical values can stand only once.

The test system of one test is OVA. Also on record: species or system C57BL/6 mice. To be noted: mouse, in vivo.
The subject of test [1] is bone marrow dendritic cells. In kind it is cell-based, C57BL/6 mice.
Test [2] relates to IL-12 secretion from dendritic cells. In kind it is cell-based, C57BL/6 mice.

Turning to “OVA, no adjuvant: 15 μg ovalbumin (OVA) with no adjuvant”, the “anti OVA antibody titres” value with OVA is below 42.

For the substance lipopolysaccharide [LPS], in test [1], the “MTT (Absorbance)” value is 0.564 Absorbance and 0.562 Absorbance. The IL-12 in test [2] was 187.9 ng/mL and 182.7 ng/mL.

The record behind these values is patent US20080248094A1 (NATIONAL RESEARCH COUNCIL OF CANADA, priority 2001, published 2008).
